Results published in patent US10184115B2, “Mutated cellobiose dehydrogenase with increased substrate specificity” (DIRECTSENS GMBH, priority 2012, dated 2019).

Target: T1, Corynascus thermophilus cellobiose dehydrogenase (CDH), recombinant wild type, SEQ ID NO: 7 (Thermothelomyces fergusii, UniProt E7D6B9)
T1 sequence (E7D6B9 24-787): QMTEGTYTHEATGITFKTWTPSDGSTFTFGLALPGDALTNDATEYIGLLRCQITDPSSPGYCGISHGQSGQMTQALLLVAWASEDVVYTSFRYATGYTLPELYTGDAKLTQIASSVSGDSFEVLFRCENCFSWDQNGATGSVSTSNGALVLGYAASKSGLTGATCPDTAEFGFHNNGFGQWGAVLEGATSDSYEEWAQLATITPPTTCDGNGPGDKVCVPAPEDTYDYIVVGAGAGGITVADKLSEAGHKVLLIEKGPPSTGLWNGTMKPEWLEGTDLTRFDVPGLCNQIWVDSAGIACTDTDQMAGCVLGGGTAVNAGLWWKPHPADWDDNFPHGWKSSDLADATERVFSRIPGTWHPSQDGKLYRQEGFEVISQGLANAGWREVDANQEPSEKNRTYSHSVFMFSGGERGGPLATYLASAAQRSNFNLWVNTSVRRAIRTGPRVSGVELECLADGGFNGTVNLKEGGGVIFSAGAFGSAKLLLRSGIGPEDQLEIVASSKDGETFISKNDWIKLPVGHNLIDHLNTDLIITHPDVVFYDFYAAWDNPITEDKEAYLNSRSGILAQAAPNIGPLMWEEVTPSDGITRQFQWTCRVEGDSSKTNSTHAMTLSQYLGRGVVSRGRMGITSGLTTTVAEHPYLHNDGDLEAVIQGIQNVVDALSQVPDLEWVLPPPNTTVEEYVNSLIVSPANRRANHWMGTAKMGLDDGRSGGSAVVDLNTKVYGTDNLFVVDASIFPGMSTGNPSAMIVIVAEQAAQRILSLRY
Test: Steady-state kinetics, DCIP assay: C. thermophilus CDH wt
Conditions: apparent, pH 5.5, 30° C.
Procedure: Enzyme activity was assayed at 30° C. using either the DCIP (Karapetyan et al., 2005 Journal of Biotechnology 121: 34-48) or cytochrome c (Canevascini et al., 1991, European Journal of Biochemistry 198: 43-52) as electron acceptor. […] Stock solutions of carbohydrates used for kinetic measurements were prepared in the respective buffer and allowed to stand overnight for mutarotation, while stock solutions of electron acceptors were prepared in water and immediately used. The reaction stoichiometry is 1 for the two-electron acceptor DCIP (1 mole of DCIP reduced per mole of carbohydrate oxidized), but 2 for the one-electron acceptor cytochrome c. Kinetic constants were calculated by fitting the observed data to the Henri-Michaelis-Menten equation or to the adapted model for substrate inhibition using nonlinear least-squares regression and the program SigmaPlot (Systat Software, San Jose, Calif., USA). […]
Recombinant wild-type CDH as well as variants were produced in 1 L baffled flasks. […] Increase in activity was monitored using the DCIP and the cytochrome c enzyme assays. […]
The sample was loaded on a 20 mL PHE Sepharose FF column (HR26/20) equilibrated with 50 mM Na-acetate buffer pH 5.5 containing 20% ammonium sulfate. […] Fractions were tested for CDH activity and pooled according to the highest Reinheitszahl (RZ, calculated from the absorbance ratio 420 nm/280 nm). […]

Structure (SMILES): OC[C@H]1OC(O)[C@H](O)[C@@H](O)[C@@H]1O (some centres unmarked) [Glucose, glucose]
- kcat: 4.09 s⁻¹
- kcat/KM: 170 M⁻¹ s⁻¹
